Experimental data from patent publication US10487053B2, “Acid addition salt of 1-(5-(2,4-difluorophenyl)-1-((3-fluorophenyl)sulfonyl)-4-methoxy-1H-pyrrol-3-yl)-N-methylmethanamine” (Daewoong Pharmaceutical Co., Ltd., priority 2016, dated 2019).

Experiments:
[1] = Stability confirmation test (impurity formation during storage under severe conditions, liquid chromatography); format: physicochemical
Procedure: The stability test was carried out for the acid addition salts prepared in the Examples to evaluate the degree to which impurities were formed during storage under severe conditions (moisture-proof condition and high-humidity exposure condition). The results of the stability test under the moisture-proof condition were shown in Table 2 below, and the results of the stability test under the high-humidity exposure condition were shown in Table 3 below. For the stability test, vials containing 10 mg of each sample which was precisely weighed and taken were prepared in the planned quantity, and they were stored by dividing into the moisture-proof condition (60° C. and less than 10% relative humidity) and under the high-humidity exposure condition (60° C. and 95% relative humidity). However, under the high-humidity exposure condition, a stopper of the vial was not used to keep so that the sample is in sufficient contact with a moisture in the air. At a fixed point of time after the initiation of the test, two vials per point of time were taken (number of samples per test n=2). 10 ml of methanol was added to each vial to dissolve the sample, which was then centrifuged. The resulting supernatant was analyzed using a liquid chromatography. The peak area was determined by integration for all detected peaks, and the relative peak area for the main component and the total impurity was calculated and expressed as an average value.

Solubility test in water = format: physicochemical; details: deionized water, thermodynamic from solid
Procedure: For the solubility test in water, a sample of less than 10 mg was first precisely weighed and taken, and placed into a vial, to which 50 μl of deionized water was added, shaking for 30 seconds and ultrasonic shaking for 1 minute were carried out, and these processes were repeated several times. The water solubility was calculated by measuring the amount of water used to dissolve all the samples.

[2] = high-humidity exposure condition (60° C. and 95% relative humidity), After 1 week
[3] = high-humidity exposure condition (60° C. and 95% relative humidity), After 2 weeks
[4] = high-humidity exposure condition (60° C. and 95% relative humidity), After 4 weeks
[5] = high-humidity exposure condition (60° C. and 95% relative humidity), Initial
[6] = moisture-proof condition (60° C. and less than 10% relative humidity), After 2 weeks
[7] = moisture-proof condition (60° C. and less than 10% relative humidity), After 4 weeks
[8] = moisture-proof condition (60° C. and less than 10% relative humidity), Initial

Row | Peak area of main component (%) [1, 2] [%] | Peak area of total impurities (%) [1, 2] [%] | Peak area of main component (%) [1, 3] [%] | Peak area of total impurities (%) [1, 3] [%] | Peak area of main component (%) [1, 4] [%] | Peak area of total impurities (%) [1, 4] [%] | Peak area of main component (%) [1, 5] [%] | Peak area of total impurities (%) [1, 5] [%] | Peak area of main component (%) [1, 6] [%] | Peak area of total impurities (%) [1, 6] [%] | Peak area of main component (%) [1, 7] [%] | Peak area of total impurities (%) [1, 7] [%] | Peak area of main component (%) [1, 8] [%] | Peak area of total impurities (%) [1, 8] [%] | solubility (Solubility test in water) [µg/mL] | Structure (SMILES)
1 | 99.81 | 0.19 | 99.80 | 0.20 | 99.80 | 0.20 | 99.82 | 0.18 | 99.80 | 0.19 | 99.80 | 0.20 | 99.82 | 0.18 | 11100 | CNCc1cn(S(=O)(=O)c2cccc(F)c2)c(-c2ccc(F)cc2F)c1OC.Cl [Example 1, 1-(5-(2,4-difluorophenyl)-1-((3-fluorophenyl)sulfonyl)-4-methoxy-1H-pyrrol-3-yl)-N-methylmethanamine hydrochloride]
2 | 99.56 | 0.44 | 99.53 | 0.47 | 99.47 | 0.54 | 99.55 | 0.45 | 99.61 | 0.39 | 99.55 | 0.45 | 99.55 | 0.45 | 7200 | CNCc1cn(S(=O)(=O)c2cccc(F)c2)c(-c2ccc(F)cc2F)c1OC.O=C(O)CCC(=O)O [Example 2, 1-(5-(2,4-difluorophenyl)-1-((3-fluorophenyl)sulfonyl)-4-methoxy-1H-pyrrol-3-yl)-N-methylmethanamine succinate]
3 | 99.48 | 0.52 | 99.43 | 0.57 | 99.23 | 0.77 | 99.52 | 0.48 | 99.54 | 0.46 | 99.48 | 0.52 | 99.52 | 0.48 | 6900 | CNCc1cn(S(=O)(=O)c2cccc(F)c2)c(-c2ccc(F)cc2F)c1OC.O=C(O)C(O)C(O)C(=O)O [Example 3, 1-(5-(2,4-difluorophenyl)-1-((3-fluorophenyl)sulfonyl)-4-methoxy-1H-pyrrol-3-yl)-N-methylmethanamine tartrate]
4 | 99.40 | 0.60 | 99.32 | 0.68 | 99.30 | 0.70 | 99.38 | 0.62 | 99.36 | 0.64 | 99.37 | 0.63 | 99.38 | 0.62 | 1730 to 2600 | CNCc1cn(S(=O)(=O)c2cccc(F)c2)c(-c2ccc(F)cc2F)c1OC.O=C(O)/C=C/C(=O)O [Example 4, 1-(5-(2,4-difluorophenyl)-1-((3-fluorophenyl)sulfonyl)-4-methoxy-1H-pyrrol-3-yl)-N-methylmethanamine fumarate]
5 | – | – | – | – | – | – | – | – | – | – | – | – | – | – | < 160 | CNCc1cn(S(=O)(=O)c2cccc(F)c2)c(-c2ccc(F)cc2F)c1OC [Preparation Example, 1-(5-(2,4-difluorophenyl)-1-((3-fluorophenyl)sulfonyl)-4-methoxy-1H-pyrrol-3-yl)-N-methylmethanamine]
